According to PMC12097015, “Development of MDM2‐Targeting PROTAC for Advancing Bone Regeneration” (Advanced Science, 2025):
Like-named read-outs stand apart in the source and are kept apart here.

Legend:
[1] = test system: hBMSCs; experiment: Alizarin Red S (ARS) staining of hBMSCs under osteogenic differentiation; format: cell-based, human; conditions: osteogenic differentiation conditions
Description: To induce osteogenic differentiation, the cells were seeded in confluent plates and cultured in osteogenic induction medium the following day. The differentiation medium was prepared by adding 10 mM β‐glycerophosphate (Sigma‐Aldrich, G9422), 50 µM ascorbic acid (Sigma‐Aldrich, A4403), and 0.1 µM dexamethasone (Sigma‐Aldrich, D4902) to the culture medium. The cells were treated with MDM2 inhibitors, Nutlin‐3 (Sigma‐Aldrich, N6787) or CL144 in an osteoinductive medium and incubated for 10–14 days to induce osteogenic differentiation. The differentiation medium was changed every 2–3 days (The list of MDM2 inhibitors used is shown in Figure 1A and presented in Table S1, Supporting Information).
Following osteogenic differentiation for the indicated number of days, the cells were fixed in 70% ethanol for 3 min at room temperature or in 4% PFA (Tech & Innovation, BPP‐9004) for 30 min at room temperature, washed with distilled water, and stained with 2% Alizarin Red S (Sigma‐Aldrich; pH 4.2, A5533) for 30 min.

[2] = test system: osteocalcin (OCN); experiment: Immunostaining of osteogenic markers in hBMSCs; format: cell-based, human; conditions: 10 µM
[3] = test system: hBMSCs; experiment: Calcium deposit staining (X-Rhod-1) in hBMSCs; format: cell-based, human; conditions: X‐Rhod‐1, p < 0.05
Description: hBMSCs were differentiated in the presence of the 10 mM β‐glycerophosphate (Sigma‐Aldrich, G9422) and 50 µM ascorbic acid (Sigma‐Aldrich, A4403) in culture medium for 10 d. Subsequently, the cells were fixed with 4% PFA for 30 min, followed by two washes with Mg^2+‐and Ca^2+‐free dPBS (Welgene, LB‐204). To stain for calcium, X‐Rhod‐1 (Invitrogen, X14210) dye was diluted in Mg^2+‐and Ca^2+‐free dPBS at a concentration of 1 µM and incubated at room temperature in the dark for 1 h. The cells were then washed five times with Mg^2+‐and Ca^2+‐free dPBS at 10 min intervals. The samples were observed under a Cytation5 microscope (Agilent Technologies) at a wavelength of 595 nm.

[4] = biological target: T1, IKZF1 (Homo sapiens, UniProt Q13422); experiment: Neo-substrate off-target immunoblot in hBMSCs; format: cell-based; conditions: 10 µM, conditions with MDM2 degradation ≈70%
T1 construct: endogenous in cells; host or cells: hBMSCs
Description: After discarding the medium and washing the cells twice with cold dPBS, the cells were collected using a scraper and lysed using RIPA buffer (GenDEPOT, R4200‐010) containing protease and phosphatase inhibitors (GenDEPOT, P3200‐001). The collected samples were centrifuged at 13 200 rpm for 10 min at 4 °C, and the supernatant containing total protein was collected. SDS‐PAGE gels (10–12%) were prepared, and protein samples were mixed with 5X loading buffer containing reducing agent (Biosesang, S2002) and heated at 98 °C for 5 min. Equal amounts of protein samples were loaded onto a gel, separated by electrophoresis, and transferred onto nitrocellulose membranes using a Dry Transfer Stacks Kit (Invitrogen, IB23001). The membrane was blocked with 5% nonfat milk in 1X TBST for 1 h at room temperature to prevent nonspecific binding. The membranes were incubated with primary antibodies specific to the target proteins overnight at 4 °C with gentle shaking. The next day, the membrane was washed three times with TBST at 10 min intervals to remove unbound primary antibodies. The membranes were incubated with secondary antibodies (anti‐rabbit and anti‐mouse) conjugated to horseradish peroxidase (HRP) for 1 h at room temperature. The membrane was washed three times with 1X TBST at 10 min intervals to remove unbound secondary antibodies. […]

[5] = biological target: T2, MDM2 (Homo sapiens, UniProt Q00987); experiment: MDM2 degradation by western blot in hBMSCs; format: cell-based; design: endogenous in cells; host or cells: hBMSCs
Description: Human Bone Marrow‐derived Mesenchymal Stem Cells (hBMSCs) were provided by Professor Lee's laboratory, and cells from passages four to nine were used for all experiments. hBMSCs were cultured in alpha‐minimum essential medium (Welgene, LM008‐01) supplemented with 10% Fetal Bovine Serum (FBS) (Gibco, US origin, 16000–044) and 1% penicillin/streptomycin (Gibco, 15140‐122).
After discarding the medium and washing the cells twice with cold dPBS, the cells were collected using a scraper and lysed using RIPA buffer (GenDEPOT, R4200‐010) containing protease and phosphatase inhibitors (GenDEPOT, P3200‐001). The collected samples were centrifuged at 13 200 rpm for 10 min at 4 °C, and the supernatant containing total protein was collected. SDS‐PAGE gels (10–12%) were prepared, and protein samples were mixed with 5X loading buffer containing reducing agent (Biosesang, S2002) and heated at 98 °C for 5 min. Equal amounts of protein samples were loaded onto a gel, separated by electrophoresis, and transferred onto nitrocellulose membranes using a Dry Transfer Stacks Kit (Invitrogen, IB23001). The membrane was blocked with 5% nonfat milk in 1X TBST for 1 h at room temperature to prevent nonspecific binding. The membranes were incubated with primary antibodies specific to the target proteins overnight at 4 °C with gentle shaking. The next day, the membrane was washed three times with TBST at 10 min intervals to remove unbound primary antibodies. The membranes were incubated with secondary antibodies (anti‐rabbit and anti‐mouse) conjugated to horseradish peroxidase (HRP) for 1 h at room temperature. The membrane was washed three times with 1X TBST at 10 min intervals to remove unbound secondary antibodies. After washing, a chemiluminescent substrate (ECL, Millipore, WBULS0100) was applied to the membrane to visualize protein bands using a chemiluminescence detector (for the antibodies used, see Table S2, Supporting Information).
The DC50 and Dmax values were calculated by western blot band quantification according to compound concentrations. The quantification value was normalized to the value relative to the untreated group and calculated using the sigmoidal dose‐response (variable slope) equation in GraphPad Prism.
Target sequence in this assay (Q00987 whole entry): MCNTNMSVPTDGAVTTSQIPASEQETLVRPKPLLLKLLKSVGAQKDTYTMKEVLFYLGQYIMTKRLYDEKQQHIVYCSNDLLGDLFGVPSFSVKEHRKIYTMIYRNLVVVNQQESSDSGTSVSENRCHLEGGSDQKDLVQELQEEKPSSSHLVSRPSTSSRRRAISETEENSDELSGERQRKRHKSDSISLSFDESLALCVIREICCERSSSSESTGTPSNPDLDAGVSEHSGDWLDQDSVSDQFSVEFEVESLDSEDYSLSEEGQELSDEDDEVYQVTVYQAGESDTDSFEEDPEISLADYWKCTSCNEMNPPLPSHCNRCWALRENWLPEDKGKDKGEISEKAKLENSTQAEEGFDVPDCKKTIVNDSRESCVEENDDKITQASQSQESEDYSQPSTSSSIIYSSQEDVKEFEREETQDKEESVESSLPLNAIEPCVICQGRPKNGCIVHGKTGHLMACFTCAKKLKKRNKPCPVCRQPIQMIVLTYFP

[6] = Pharmacokinetic study in BALB/c mice; format: in vivo; conditions: mouse, plasma; for MRT last: read-out: MRT0–t; for MRT inf: read-out: MRT0–∞
Description: Pharmacokinetic (PK) studies of CL144 were conducted by Medicilon Preclinical Research (Shanghai) LLC. Six BALB/c mice were divided into two groups, and CL144 was administered by tail vein injection (iv; 1.0 mg kg^−1) or gavage (po; 10 mg kg^−1). Blood samples were collected from the submandibular vein at 0.083, 0.25, 0.5, 1, 4, and 24 h for the iv group and at 0.25, 0.5, 1, 3, 6, and 24 h for the po group. Blood samples were centrifuged at 6800 x g for 6 min at 2–8 °C within 1 h after collection and stored at ≈−80 °C. Plasma samples were analyzed by LC‐MS/MS (TQ6500+), and PK parameters were calculated using the FDA‐certified pharmacokinetic program Phoenix WinNonlin 7.0 (Pharsight, USA).

[7] = biological target: T2, MDM2; experiment: Microscale thermophoresis (MST) binding assay; design: made in house; host or cells: E. coli BL21 (DE3); conditions: His-Tag MDM2, n = 3, read-out: dissociation constant (Kd)
Target sequence in this assay (Q00987 whole entry, species assumed): as the sequence (Q00987 whole entry) above
Description: E. coli BL21 (DE3) competent cells transformed with pSPEL870 were used to express MDM2 protein.^[ [27] ^] The recombinant strain was cultured in 500 mL 2XYT at 37 °C until the optical density (OD600 ) reached 0.5. Protein expression was induced by adding 0.2 mM isopropyl β‐D‐1‐thiogalactopyranoside (IPTG; Bioshop, Canada) at 20 °C overnight. […] The protein was purified using Ni‐NTA resin (Qiagen, Germany), according to the manufacturer's protocol. The purified protein was buffer exchanged with phosphate‐buffered saline (PBS, pH 7.4) using a centrifugal filter unit (MWCO: 10 K; Merck Millipore, USA). The protein was stored at –20 °C in PBS with 20% glycerol and 1 mM dithiothreitol (DTT).
The His‐Tag MDM2 protein was labeled using a His‐Tag Labeling Kit RED‐tris‐NTA second Generation (NanoTemper, MO‐L018) according to the manufacturer's instructions. […] The final mixtures were transferred to capillaries (NanoTemper, MO‐K022) and the samples were measured using a Monolith NT.115Pico (NanoTemper) instrument (auto LED power; medium MST power). […] The signals were represented as normalized changes in fluorescence (Fnorm ) upon ligand binding. Baseline‐corrected normalized fluorescence (DFnorm ) was obtained from Fnorm values using MO Affinity Analysis, and the dissociation constants (Kd ) were determined by curve fitting (variable slope model) using GraphPad Prism 10.

T1 sequence (Q13422 whole entry): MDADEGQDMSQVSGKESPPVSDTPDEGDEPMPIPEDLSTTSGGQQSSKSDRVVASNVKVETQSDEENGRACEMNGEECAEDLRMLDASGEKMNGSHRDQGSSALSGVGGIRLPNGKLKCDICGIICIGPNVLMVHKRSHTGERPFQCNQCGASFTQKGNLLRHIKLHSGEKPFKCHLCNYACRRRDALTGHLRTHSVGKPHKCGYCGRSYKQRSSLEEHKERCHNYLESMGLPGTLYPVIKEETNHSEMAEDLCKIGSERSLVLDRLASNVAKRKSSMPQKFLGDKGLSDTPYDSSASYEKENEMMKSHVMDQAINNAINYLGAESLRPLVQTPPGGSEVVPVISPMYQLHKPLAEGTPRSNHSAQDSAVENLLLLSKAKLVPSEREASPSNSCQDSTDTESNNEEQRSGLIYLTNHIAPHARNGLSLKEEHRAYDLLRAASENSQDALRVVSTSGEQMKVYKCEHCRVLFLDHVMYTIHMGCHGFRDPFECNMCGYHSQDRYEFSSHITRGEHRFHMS

In the case of `COc1ccc(C2=N[C@H](c3ccc(Cl)cc3)[C@H](c3ccc(Cl)cc3)N2C(=O)N2CCN(CC(=O)NCCCCCCCCOc3cccc4c3C(=O)N(C3CCC(=O)NC3=O)C4=O)C(=O)C2)c(OC(C)C)c1` (stereo in doubt) [CL144], the “biomineralization / osteogenic potency (ARS staining)” value [1] is reported as “significantly enhanced biomineralization”, the “osteocalcin (OCN) protein intensity compared to the control group” value [2] is reported as “no statistically significant difference” and the “calcium deposits compared to the control group” value [3] is reported as “significantly increased”. For the same molecule, the IKZF1 reduction [4] was “about 35%”, the “MDM2 degradation, dose-dependent effect” value ([5]; 0.1 µM to 10 µM) was “robust MDM2 degradation” and the MDM2 degradation ([5]; 10 µM, neo-substrate experiment) was “≈ 70%”. The “decrease in MDM2 levels compared to the basal level” value ([5]; 10 μΜ for 1 h) was “over 80%”, the “maximal degradation concentration (Dmax)” value ([5]; quantified western blot, 1 nM to 50 µM, n = 2) was 1 μΜ and the DC50 ([5]; quantified western blot, 1 nM to 50 µM, n = 2, read-out: half‐maximal degradation concentration (DC50)) was 90 nM. It also gave an AUC(0-inf) ([6]; 1.0 mg kg^−1 (iv)) of 546 ± 39 ng·h/mL, an AUC(0-t) ([6]; 1.0 mg kg^−1 (iv)) of 532 ± 35 ng·h/mL and a Cmax ([6]; 1.0 mg kg^−1 (iv)) of 1630 ± 111 ng/mL. It also gave a Tmax ([6]; 1.0 mg kg^−1 (iv)) of 4.98 min, a clearance ([6]; 1.0 mg kg^−1 (iv)) of 30.6 ± 2.1 mL/min/kg and a half-life ([6]; 1.0 mg kg^−1 (iv)) of 70.8 ± 6.6 min. It also gave an MRT last ([6]; 1.0 mg kg^−1 (iv)) of 16.8 ± 1.2 min, an MRT inf ([6]; 1.0 mg kg^−1 (iv)) of 25.2 ± 3.6 min and a Vd ([6]; 1.0 mg kg^−1 (iv), read-out: V ss) of 0.774 ± 0.092 L/kg. The AUC(0-t) ([6]; 1 mg kg^−1, intravenous administration) was 532 ng·h/mL, the AUC(0-inf) ([6]; 10 mg kg^−1 (po)) was 256 ± 49 ng·h/mL and the AUC(0-t) ([6]; 10 mg kg^−1 (po)) was 252 ± 44 ng·h/mL. For the same molecule, the Cmax ([6]; 10 mg kg^−1 (po)) was 106 ± 9 ng/mL, the Tmax ([6]; 10 mg kg^−1 (po)) was 49.8 ± 17.4 min and the bioavailability ([6]; 10 mg kg^−1 (po)) was 4.74 ± 0.83%. For the same molecule, the half-life ([6]; 10 mg kg^−1 (po)) was 55.8 ± 15.6 min, the MRT last ([6]; 10 mg kg^−1 (po)) was 94.8 ± 21.6 min and the MRT inf ([6]; 10 mg kg^−1 (po)) was 100 ± 27.6 min. The Kd [7] was 1120 nM.
